# Test results published in patent US12239714B2, “Phosphatidylserine-binding conjugates” (CANBAS CO., LTD., priority 2021, dated 2025).
# “Also recorded” adds a separate entry of the source.
# How the values were obtained:
# [1] = test system: CT26 colon cancer cell line; assay: Syngeneic mice model, TSA005 (FIG. 1): growth of subcutaneous CT26 tumor; type: in vivo, BALB/c mice
# Experimental: All animal studies were conducted according to protocols approved by institutional animal care committee of CanBas Co., Ltd. Six-week-old female BALB/c mice (The Jackson Laboratories Japan, Inc., Kanagawa, Japan) were inoculated subcutaneously in a flank with a suspension of CT26WT cells (5×10^5 cells). Ten days later mice were apportioned into 5 groups (6-8 mice/group) and treatments were initiated on day1.
# The first cycle of the treatments was on day 1 to 5 and the second cycle was on day 10 to 14 as follows.
# Cisplatin: Intravenous injection (i.v.) of Cisplatin 4 mg/kg and 5% Glucose on Day 1 and 10. Saline i.v. on Days 2, 3, 11 and 12.
# Cisplatin+CBP501: Cisplatin 4 mg/kg and CBP501 6 mg/kg i.v. on Day 1 and 10. Saline i.v. on Days 2, 3, 11 and 12.
# Cisplatin+CBP501+anti-CTLA-4 antibody: anti-CTLA4 antibody 200 μg intraperitoneal injection (i.p.) on Days 1 and 5. Cisplatin 4 mg/kg and CBP501 6 mg/kg i.v. on Day 2.
# Cisplatin+CBP501+anti-CTLA-4 antibody+TSA005: anti-CTLA4 antibody 200 μg i.p. on Days 1 and 5. Cisplatin 4 mg/kg and CBP501 6 mg/kg i.v. on Day 2. TSA005 100 μg i.v. twice on Day 3 and once on Day 4.
# Diphenhydramine 10 mg/kg was given i.p. 15 min before CBP501 or 5% Glucose treatment. The size of tumor was measured thrice weekly with a pair of calipers to calculate tumor volume by using the following formula: volume (mm^3)=[(width)^2 (mm)×length (mm)]/2.
# Colon cancer cells from the CT26 cell line were subcutaneously inoculated in BALB/c mice 5×10^5 cells/mouse. The treatment was initiated on day 1, when the tumor sizes of 6-8 mice per test group attained an average size of about 200 mm^3. A cycle of the treatment schedule, dose and the route of treatment are detailed below. […]
# [2] = test system: CT26 colon cancer cell line; assay: Syngeneic mice model, TSA005 compared to TSA009 (FIG. 2); type: in vivo, BALB/c mice; settings: 100 μg i.v. twice on Day 3 and once on Day 4; one cycle
# Experimental: All animal studies were conducted according to protocols approved by institutional animal care committee of CanBas Co., Ltd. Six-week-old female BALB/c mice (The Jackson Laboratories Japan, Inc., Kanagawa, Japan) were inoculated subcutaneously in a flank with a suspension of CT26WT cells (5×10^5 cells). Ten days later, the mice were apportioned into 3 groups (6 mice/group) and treatments were initiated on Day 1.
# Cisplatin+CBP501+anti-CTLA-4 antibody: anti-CTLA4 antibody 200 μg intraperitoneal injection (i.p.) on Days 3 and 5. Cisplatin 4 mg/kg and CBP501 6 mg/kg i.v. on Day 2. Saline i.v. twice on Day 3 and once on Day 4.
# Cisplatin+CBP501+anti-CTLA-4 antibody+TSA005: anti-CTLA4 antibody 200 μg i.p. on Days 3 and 5. Cisplatin 4 mg/kg and CBP501 6 mg/kg i.v. on Day 2. TSA005 100 μg i.v. twice on Day 3 and once on Day 4.
# Cisplatin+CBP501+anti-CTLA-4 antibody+TSA009: anti-CTLA4 antibody 200 μg i.p. on Days 3 and 5. Cisplatin 4 mg/kg and CBP501 6 mg/kg i.v. on Day 2. […] 100 μg i.v. twice on Day 3 and once on Day 4.
# Diphenhydramine 10 mg/kg was given i.p. 15 min before CBP501 or 5% Glucose treatment. The size of tumor was measured thrice weekly with a pair of calipers to calculate tumor volume by using the following formula: volume (mm^3)=[(width)2 (mm)×length (mm)]/2.
# [3] = test system: CT-26 mouse colon cancer cell line; assay: Tumor growth curves of subcutaneously implanted CT-26 in syngeneic BALB/c mice (FIGS. 4A-4D); type: in vivo; settings: for mouse body weight, compared with the triple drug combination: 100 μg/mouse iv added to Cisplatin+CBP501+anti-CTLA4, data not shown; for CT26 tumor growth, conjugate added to Cisplatin+CBP501+anti-CTLA4 treatment: 100 μg/mouse iv, day 2×2, day 3×1
# Experimental: BALB/c mice were implanted subcutaneously with 5×10^5 cells mice colon cancer cell line, CT-26WT, at day −10 when the mice were at the age 6 weeks. Six mice made a group for each treatment when the average tumor size was 205 mm^3 (132-279 mm^3). Treatments were done as follows when the mice were at the age 8 weeks with body weight 19.5 to 24.5 g and tumor size were measured three times in a week.
# Dosing schedule (“ip”: intraperitoneal injection; “iv”: intravenous injection): • Diphenhydramine (ip): 10 mg/kg (15 min before Cisplatin/CBP501 on day 1) • Cisplatin (iv): 4 mg/kg (day 1) • CBP501 (iv): 6 mg/kg (day 1) • Anti-CTLA4 antibody (ip) 200 μg/mouse (day2, 4) • TSA005,006 in saline (iv): 100 μg/mouse (day 2×2, day3×1) • TSA015 in HEPES (iv): 100 μg/mouse (day 2×2, day3×1) • Vehicle: saline (iv): 100 μL/mouse (day 2×2, day3×1) Distribution of the Cy5.5 Version of TSA006 (TSA013) in BALB/c Mouse. (FIG. 5)
Substance,"tumor growth, TSA005 added to the CBP501+cisplatin combination ([1]; TSA005 100 μg i.v. Days 2, 3, 11 and 12, two cycles)","anti-tumor activity of TSA005 in combination with the two-drug or three-drug treatment regimen ([1]; TSA005 100 μg i.v., with CBP501+cisplatin or CBP501+cisplatin+anti-CTLA-4 antibody)","CT26 subcutaneous tumor growth, conjugate added to CBP501+cisplatin+anti-CTLA4 antibody [2]","mouse body weight, compared with the triple drug combination [3]","CT26 tumor growth, conjugate added to Cisplatin+CBP501+anti-CTLA4 treatment [3]","subcutaneous tumor growth, CBP501+cisplatin combination versus cisplatin alone ([1]; Cisplatin 4 mg/kg and CBP501 6 mg/kg i.v. Day 1 and 10, CT26 in BALB/c mice, acetate salt)"
(TLVSSLr)4-K2-K-Cys(MI-CL264)-NH2 [TSA005],further suppressed the tumor growth; also recorded: further reduced the growth of the tumor,enhanced anti-tumor activity; also recorded: reduced tumor growth further than the triple drug combination,suppressed CT26 subcutanous tumor growth more,did not change the mouse body weight further,further tumor growth suppression; also recorded: further suppressed the tumor growth,–
(TLVSSLr)8-K4-K2-K-Cys(MI-CL264)-NH2 [TSA009],–,–,not and deleterious effect,–,–,–
(GEGKGGr)4-K2-K-Cys(MI-CL264)-NH2 [TSA006],–,–,–,did not change the mouse body weight further,further tumor growth suppression; also recorded: further suppressed the tumor growth,–
"H-(D)p-benzoylphenylalanyl-(D)seryl-(D)tryptophanyl-(D)seryl-(D)pentafluorophenylalanyl-(D)cyclohexylalanyl-(D)arginyl-(D)arginyl- (D)arginyl-(D)glutaminyl-(D)arginyl-(D)arginine acetate salt [CBP501, reference compound]",–,–,–,–,–,suppressed subcutaneous tumor growth much better than cisplatin alone
